Experimental data reported in patent publication US20170027893A1, “THIOSEMICARBAZONES INHIBITORS OF LYSOPHOSPHATIDIC ACID ACYLTRANSFERASE AND USES THEREOF” (H. LEE CANCER CENTER AND RESEARCH INSTITUTE, INC., priority 2014, published 2017).
Values joined by “and” are separate entries in the source; they are usually repeats but may differ in a detail not shown here. Equal values may be shown once. Read-outs that look alike come from different tables or passages of the source.

How the values were obtained:
LPAAT-β [1] = target: T1, LPAAT-β (Homo sapiens, UniProt O15120); settings: previously reported inhibitors; cited from earlier work
T1 sequence (O15120 24-278): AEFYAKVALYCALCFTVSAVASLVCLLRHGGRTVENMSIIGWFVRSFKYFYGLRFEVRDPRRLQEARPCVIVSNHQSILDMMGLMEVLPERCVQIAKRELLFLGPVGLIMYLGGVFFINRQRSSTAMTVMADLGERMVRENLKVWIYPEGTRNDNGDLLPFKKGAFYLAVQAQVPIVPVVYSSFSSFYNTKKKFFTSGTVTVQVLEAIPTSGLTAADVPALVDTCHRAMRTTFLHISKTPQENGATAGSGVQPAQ

[2] = system: MiaPaCa2 human pancreatic cancer cells; experiment: inhibition of proliferation, Alamar blue, 72 h; type: cell-based
Description: The ability of selected compounds from the libraries 6, 15 and 19 to inhibit the growth of MiaPaCa2 human pancreatic cancer cells was investigated. Human pancreatic carcinoma (MiaPaCa2) cells were plated at a low confluency into 96-well tissue culture-treated plates. After allowing cells to attach and grow overnight at 37 degrees in a 5% CO2 incubator, growth medium was replaced with fresh medium (100 μl/well) containing compounds in a range from 0.1-100 μM. All treatments were made from 500× stock solutions in DMSO, and the control wells received an equivalent amount of DMSO in medium. After 72 hours of growth in the presence of the compounds, Alamar blue was added to the wells according to the manufacturer's instructions (Life Technologies, Grand Island, N.Y.) and cells were incubated in its presence for 2-3 hours. Fluorescence readings were performed using a Biotek Synergy II plate reader with […] wavelengths of 530/590 nm. […] Calculated IC50s are representative of at least three independent experiments.

LPAAT-β [3] = target: T1, LPAAT-β; experiment: DTNB (Ellman's reagent) 96-well plate screening assay of LPAAT-β enzymatic activity; type: biochemical; parameters: The assay utilizes full-length, recombinant, baculovirus-produced LPAAT-β; made in house
Description: Screening with a modified screening assay in 96-well plate format for LPAAT-β enzymatic activity was performed as reported by Aguado and Campbell (Aguado et al., Characterization of a human lysophosphatidic acid acyltransferase that is encoded by a gene located in the class III region of the human major histocompatibility complex. J. Biol. Chem. 1998, 273, 4096-105).
The assay utilizes full-length, recombinant, baculovirus-produced LPAAT-β, which catalyzes the production of dioleoyl-[…] from the enzymatic substrates oleoyl-lysophosphatidic acid (LPA) and oleoyl-coenzyme A (Scheme 2). The ability of the compound to inhibit the LPAAT-β activity was assayed by the colorimetric measurement of the reaction of the free thiol group of the released coenzyme A with Ellman's reagent [5,5′-dithiobis-(2-nitrobenzoic acid) or DTNB] (Riener et al., Quick measurement of protein sulfhydryls with Ellman's reagent and with 4,4′-dithiodipyridine. Anal. Bioanal. Chem. 2002, 373, 266-76). […] A hit identified from the Life Chemicals library 6a (IC50 100 nM) was selected for further investigation.

LPAAT-β [4] = target: T1, LPAAT-β; experiment: secondary thin layer chromatography (TLC) assay measuring fluorescent PA; type: biochemical; parameters: The assay utilizes full-length, recombinant, baculovirus-produced LPAAT-β; made in house
[5] = read-out: IC50 (μM) (DTNB assay) (converted)
[6] = Table 4, read-out: IC50 (μm) (DTNB assay) (converted)

Compound	IC50 (LPAAT-β [3]; [5])	IC50 (LPAAT-β [4]) [µM]	IC50 (LPAAT-β [3]; [6]) [µM]	IC50 (LPAAT-β [4]; Table 4) [µM]	further results
CCOc1ccc(Cl)cc1-c1cc(Nc2ccc(Cl)cc2)nc(N)n1 [Compound 1]					in vitro activity against LPAAT-β enzyme activity, in words (LPAAT-β [1]): potent in vitro activity
C=CCc1cccc(/C=N/NC(N)=S)c1O [Compound 6a]	0.86 ± 0.52 µM	33 ± 13			IC50 ([2]; Homo sapiens, MIA PaCa-2): 38 ± 17 µM; IC50 (LPAAT-β [3]; hit from the Life Chemicals library, before resynthesis, read-out: IC50 of the hit in the library screen): 0.1 µM
NC(=S)NN=Cc1ccccc1O [Compound 6b]	> 100 µM	> 100			LPAAT-β inhibitory activity in words (assay not given) (LPAAT-β [3]): inactive; LPAAT-β inhibitory activity in words (TLC assay) (LPAAT-β [4]): inactive
NC(=S)NN=Cc1cccc(O)c1O [Compound 6c]	> 100 µM	> 10			LPAAT-β inhibitory activity in words (assay not given) (LPAAT-β [3]): inactive
CCOc1cccc(C=NNC(N)=S)c1O [Compound 6d]	> 100 µM	> 10			LPAAT-β inhibitory activity in words (assay not given) (LPAAT-β [3]): inactive
NC(=S)NN=Cc1cccc(F)c1O [Compound 6e]	4.3 µM	> 10			
NC(=S)NN=Cc1cccc(Cl)c1O [Compound 6f]	2 µM	> 10			
NC(=S)NN=Cc1cccc(Br)c1O [Compound 6g]	1.5 µM	> 10			
Cc1cccc(C=NNC(N)=S)c1O [Compound 6h]	7.5 µM	> 10			
NC(=S)NN=Cc1cccc(C(F)(F)F)c1O [Compound 6i]	7 µM	> 10			
CCc1cccc(C=NNC(N)=S)c1O [Compound 6j]	0.85 ± 0.56 µM	48 ± 15			IC50 ([2]; Homo sapiens, MIA PaCa-2): 36 ± 20 µM
CCCc1cccc(C=NNC(N)=S)c1O [Compound 6k]		19 ± 11			
CC(C)c1cccc(C=NNC(N)=S)c1O [Compound 6l]	13 ± 8.4 µM	30			
NC(=S)NN=Cc1cccc(-c2ccccc2)c1O [Compound 6m]	40 ± 10 µM	> 10			
NC(=S)NN=Cc1cccc(C2CCCCC2)c1O [Compound 6n]	> 100 µM	> 10			
CCCCc1cccc(C=NNC(N)=S)c1O [Compound 6o]		> 10			
CCCCCc1cccc(C=NNC(N)=S)c1O [Compound 6p]	> 100 µM	> 10			
CCCCCCCc1cccc(C=NNC(N)=S)c1O [Compound 6q]	> 100 µM	9.7			

Compound	IC50 (LPAAT-β [3]; [5])	IC50 (LPAAT-β [4]) [µM]	IC50 (LPAAT-β [3]; [6]) [µM]	IC50 (LPAAT-β [4]; Table 4) [µM]	further results
NC(=S)NN=Cc1cccc(CCCc2ccccc2)c1O [Compound 6r]	> 100 µM				
NC(=S)N/N=C/c1ccc2ccccc2c1O [Compound 6s]	6.4 ± 4.7 µM				
NC(=S)N/N=C/c1cccc2c1oc1ccccc12 [Compound 6t]					LPAAT-β inhibitory activity in words (assay not given) (LPAAT-β [3]): inactive
C=CCc1cccc(/C=N/NC(N)=O)c1O [Compound 6w]					LPAAT-β inhibitory activity in words (assay not given) (LPAAT-β [3]): inactive
C=CCc1cccc(C=NNC(=S)NC)c1O [Compound 10a]	3.9 ± 2.3 µM	> 10			
CCCc1cccc(C=NNC(=S)NC)c1O [Compound 10b]	14 ± 12 µM	> 10			
CCCc1cccc(C=NNC(=S)NC(=O)c2ccccc2)c1O [Compound 10c]	> 100 µM				LPAAT-β inhibitory activity in words (assay not given) (LPAAT-β [3]): inactive
C=CCc1cccc(C=NN=c2scc(-c3ccccc3)n2C)c1O [Compound 11a]	> 100 µM	> 10			LPAAT-β inhibitory activity in words (assay not given) (LPAAT-β [3]): inactive
CCCc1cccc(C=NN=c2scc(-c3ccccc3)n2C)c1O [Compound 11b]	> 100 µM	> 10			LPAAT-β inhibitory activity in words (assay not given) (LPAAT-β [3]): inactive
C=CCc1cccc(C=NN=c2[nH]c(-c3ccccc3)cs2)c1O [Compound 11c]	> 100 µM	> 10			
CCCc1cccc(C(C)=NNC(N)=S)c1O [Compound 15a]	0.65 ± 0.42 µM	35 ± 18			IC50 ([2]; Homo sapiens, MIA PaCa-2): 23 ± 15 µM
C=CCc1cccc(C(C)=NNC(N)=S)c1O [Compound 15b]	0.52 ± 0.25 µM	> 10			
CCc1cccc(C(C)=NNC(N)=S)c1O [Compound 15c]	0.73 ± 0.76 µM	> 10			
C=CCc1cc(Cl)cc(C(C)=NNC(N)=S)c1O [Compound 15d]	0.2 µM	32			
CC(=NNC(N)=S)c1cc(Cl)ccc1O [Compound 15e]	2.8 µM	> 10			
CC(=NNC(N)=S)c1cc(Cl)cc(Cl)c1O [Compound 15f]	0.27 µM	> 10			
NNC(N)=S [Thiosemicarbazide]					LPAAT-β inhibitory activity in words (assay not given) (LPAAT-β [3]): not by itself active

Continued, in another order:

IC50 (LPAAT-β [3]; [5])	IC50 (LPAAT-β [4]) [µM]	IC50 (LPAAT-β [3]; [6]) [µM]	IC50 (LPAAT-β [4]; Table 4) [µM]	Compound	further results
0.17 ± 0.09 µM	3.3 ± 1.2	0.17 ± 0.09	3.3 ± 1.2	C=CCc1cc(Cl)cc(C(C)=NNC(N)=S)c1O [Compound 19a]	IC50 [2]: 14 ± 5.5 µM
		0.24	24	C=CCc1cc(F)cc(C(C)=NNC(N)=S)c1O [Compound 19b]	
		0.1	4.1	C=CCc1cc(Br)cc(C(C)=NNC(N)=S)c1O [Compound 19c]	
		0.46	> 10	C=CCc1cc(C#N)cc(C(C)=NNC(N)=S)c1O [Compound 19d]	
		0.2	1.9	C=CCc1cc(CC)cc(C(C)=NNC(N)=S)c1O [Compound 19e]	
		0.27	2.4	C=CCc1cc(CCC)cc(C(C)=NNC(N)=S)c1O [Compound 19f]	
		0.16	1.4	C=CCc1cc(C(C)C)cc(C(C)=NNC(N)=S)c1O [Compound 19g]	
0.16 ± 0.07 µM	1.4 ± 1.1	0.16	1.4	C=CCc1cc(CCCC)cc(C(C)=NNC(N)=S)c1O [Compound 19h]	IC50 [2]: 12 ± 3.3 µM
		0.31	1.3	C=CCc1cc(C(C)(C)C)cc(C(C)=NNC(N)=S)c1O [Compound 19i]	
		0.19	3.2	C=CCc1cc(CCCCC)cc(C(C)=NNC(N)=S)c1O [Compound 19j]	
17 ± 7.3 µM	3.2 ± 1.6	0.24	5.2	C=CCc1cc(CCCCCC)cc(C(C)=NNC(N)=S)c1O [Compound 19k]	
2.67 ± 0.25 µM	> 10			C=CCc1cc(C(C)=O)cc(C(C)=NNC(N)=S)c1O [Compound 19l]	
		1.15		C=CCc1cc(CC(=O)OC)cc(C(C)=NNC(N)=S)c1O [Compound 19m]	
1.15 µM and 0.19 µM	5.7 ± 2.5			C=CCc1cc(-c2ccccc2)cc(C(C)=NNC(N)=S)c1O [Compound 19n]	
0.18 ± 0.07 µM	4.2 ± 1.2	0.18	4.2	C=CCc1cc(-c2ccc(Br)cc2)cc(C(C)=NNC(N)=S)c1O [Compound 19o]	IC50 [2]: 5.8 ± 1.6 µM
0.32 ± 0.07 µM	2.5 ± 1.4	0.32 ± 0.07	2.5 ± 1.4	C=CCc1cc(-c2ccc(Cl)cc2)cc(C(C)=NNC(N)=S)c1O [Compound 19p]	IC50 [2]: 7.4 ± 2.3 µM
		0.29 ± 0.06	5.1 ± 3	C=CCc1cc(-c2ccc(F)cc2)cc(C(C)=NNC(N)=S)c1O [Compound 19q]	
0.52 ± 0.23 µM	2.1 ± 0.9	0.52 ± 0.23	2.1 ± 0.9	C=CCc1cc(-c2ccc(Cl)cc2Cl)cc(C(C)=NNC(N)=S)c1O [Compound 19r]	IC50 ([2]; Homo sapiens, MIA PaCa-2): 7.6 ± 0.9 µM
0.57 ± 0.27 µM	17 ± 7.3	0.57 ± 0.27	17 ± 7.3	C=CCc1cc(-c2cc(Cl)cc(Cl)c2)cc(C(C)=NNC(N)=S)c1O [Compound 19t]	IC50 ([2]; Homo sapiens, MIA PaCa-2): 4.9 ± 2 µM
0.36 ± 0.1 µM		0.4 ± 0.19	1 ± 0.9	C=CCc1cc(-c2ccc(C#N)cc2)cc(C(C)=NNC(N)=S)c1O [Compound 19u]	
0.28 ± 0.02 µM	> 10	0.28 ± 0.02	> 10	C=CCc1cc(-c2cccc(C#N)c2)cc(C(C)=NNC(N)=S)c1O [Compound 19v]	IC50 ([2]; Homo sapiens, MIA PaCa-2): 7.8 ± 2.7 µM
0.67 ± 0.16 µM	9.2 ± 4.2	0.67 ± 0.16	9.2 ± 4.2	C=CCc1cc(-c2ccc(C)c(Cl)c2)cc(C(C)=NNC(N)=S)c1O [Compound 19w]	IC50 [2]: 7.2 ± 3.1 µM
